Data on 2 compounds can be found in patent US6060038A, “Radiolabeled farnesyl-protein transferase inhibitors” (Merck & Co., Inc., priority 1998, dated 2000).

One data set has as its system FPTase. Put plainly: PET Imaging in Dogs: block of [^11 C]-Compound 1 radiotracer binding by infused FTI. In kind it is in vivo, beagle dogs. The conditions noted are these: 10 mpk infused over 5 minutes, radiotracer [^11 C]-Compound 1. On the procedure: Kinetics of enzyme occupancy by an unlabeled FPTase inhibitor (test compound) is determined by this assay. Thus, FVB mice are injected the test compound at either 40 mpk or 10 mpk subcutaneously (0.1 mls). Thirty minutes prior to euthanasia, 3 nCi of tritiated farnesyl protein transferase inhibitor (radiotracer) was injected i.p. (0.2 mls 10% EtOH in 0.9% saline). Uninhibited binding of the radiotracer is determined by injection of the radiotracer in mice which have not received injection of the test compound. The mice are euthanized either 2 hours of 14 hours after injection of the test compound and lung, spleen, pancrease and blood are removed and processed as described above. Data are plotted as %-dose/g of tissue (wet weight). […]
Oxygen saturation of circulating blood is measured with a pulse oximeter (Nellcor Inc., Hayward, Calif.) placed on the tongue of the animal. […] EKG, heart rate, and core temperature are monitored continuously. […]
For uninhibited distribution of radiotracer, regions of interest (ROIs) are drawn on the reconstructed image includes the kidney cortex and a region of liver which is removed from the gallbladder images. […] Data are expressed as radioactivity per unit time per unit volume (μCi/cc/mCi injected dose). […]

A short description of data set [1]: Radiochemical decomposition of stored radiotracer samples. Format: physicochemical. The conditions noted are these: stored for up to 90 minutes in sterile glass vial; saline/sodium bicarbonate. Here is the method:
The container used for the drug is described above. It consists of a sterile, pyrogen free glass vial with a crimp-sealed aluminum cap surrounding a rubber stopper. Samples of the radiotracer have been stored for up to 90 minutes and analyzed for radiochemical decomposition.

Structures can show the parent of a compound that is named as a salt.

As to `CCCC[C@H]1CN(c2cccc(C)c2C)C(=O)CN1Cc1cncn1Cc1ccc(C#N)cc1.O=C(O)C(F)(F)F.O=C(O)C(F)(F)F` [Compound 3, 5(S)-n-Butyl-4-[1-(4-cyanobenzyl)imidazol-5-ylmethyl]-1-(2,3-dimethylphenyl)piperazin-2-one ditrifluoroacetic acid salt], the “block of radiotracer binding” value in the data set on FPTase is recorded as “completely block radiotracer binding”.
On to `[11CH3]S(=O)(=O)CC[C@H]1CN(c2cc(I)cc(CF)c2)C(=O)CN1Cc1cncn1Cc1ccc(C#N)cc1` [[^11 C]-Compound 1, (S)-1-(3-iodo-5-fluoromethylphenyl)-4-[1-(4-cyanobenzyl)-5-imidazolylmethyl]-5-[2-(^11 C-methanesulfonyl)ethyl]-2-piperazinone dihydrochloride], for which the “radiochemical decomposition on storage” value in data set [1] is “No decomposition has been observed”.
